Results taken from patent USRE46943E1, “Radioprotector compounds and methods” (PETER MACCALLUM CANCER INSTITUTE, priority 2010, dated 2018).

What was measured:
[1] = system: transformed human keratinocyte cell line (FEP 1811); assay: Clonogenic survival cell culture assay for radioprotective activity (12 Gy 137Cs gamma irradiation); format: cell-based; details: 12 Gy; for DMF10 (dose modification factor at a concentration of 10 microM of radioprotector): 10 microM radioprotector; for DMFm (dose modification factor at maximum protection): DMF=Dp/Dc at survival level Sm; for PF (protection factor = Sm/So): survival at maximum protection vs irradiation only
Text: PF is defined as a ratio of survival at maximum protection Sm and survival after irradiation only So: PF=Sm/So. DMF is defined as a ratio of doses that result in survival level of Sm in the presence Dp and the absence Dc of radioprotector: DMF=Dp/Dc. DMF10 is define in a similar way except that instead of Sm a survival at 10 microM of radioprotector is used.
PF (Protection Factor) is defined as a ratio of survival at maximum protection Sm and survival after irradiation only So:PF=Sm/So. DMF (Dose Modification Factor) is defined as a ratio of doses that result in survival level of Sm in the presence (Dp) and the absence (Dc) of radioprotector: DMF=Dp/Dc. DMF10 is defined in a similar way except that instead of Sm a survival at 10 microM of radioprotector is used.
(§1) • i. […] In appropriate cases, tautomers are drawn to illustrate potential hydrogen-bond donating configurations into the minor groove of DNA. • ii. 2-Amino-4-(5′-(4″-methylpiperazin-1″-yl)benzimidazol-2′-yl)aniline was prepared by hydrogenation of 4-(5′-(4″-methylpiperazin-1″-yl)benzimidazol-2′-yl)-2-nitroaniline, using a modification of the method of Kelly et al, Aust. […] 2-Amino-4-(5′-(piperidin-1″-yl)benzimidazol-2′-yl)aniline was prepared by hydrogenation of 2-nitro-4-(5′-(piperidin-1″-yl)benzimidazol-2′-yl)aniline, using a modification of the method of Kelly et al, Aust. […] Ethyl 4-amino-3-nitrobenzenecarboximidate hydrochloride was prepared by reaction of 4-amino-3-nitrobenzonitrile with dry HCl gas in ethanol, using the method of Kelly et al, Aust. […] 5-(4′-Methylpiperazin-1′-yl)-2-nitroaniline was prepared using a modification of the method of Kelly et al, Aust. […] The following chemicals were obtained from the chemical suppliers indicated: 2-furaldehyde (Aldrich), 2-pyridinecarboxaldehyde (Aldrich), 3-fluoropyridine-2-carbaldehyde (Maybridge), 3-trifluoromethylpyridine-2-carboxaldehyde (Apollo Scientific), 6-methyl-2-pyridinecarboxaldehyde (Matrix Scientific), 5-methylpyridine-2-carbonitrile (Apollo Scientific), 4-methyl-2-pyridinecarbonitrile (Aldrich), 4-chloro-2-pyridinecarbonitrile (Aldrich), 4-methoxypicolinonitrile (Combi-Blocks), pyrazinecarbonitrile (Aldrich), 2-quinolinecarbonitrile (Aldrich), 3-isoquinolinecarbonitrile (Aldrich), 1-isoquinolinecarboxylic acid (Aldrich), indazole-3-carboxylic acid (Aldrich), 2-hydroxynicotinic acid (Aldrich), 4-hydroxypiperidine (Aldrich), 1-methylhomopiperazine (Aldrich), 3-hydroxypiperidine (Aldrich), 4-(N-BOC-amino)piperidine (Aldrich), 4-methoxypiperidine (Acros), 4-methyl-3-nitrobenzonitrile (Aldrich), 5-chloro-2-nitroaniline (Aldrich), 2-cyanopyridine (Aldrich), methyl 4-amino-2-methoxybenzoic acid (Aldrich), 4-(trifluoromethyl)-2-pyridinecarbonitrile (Matrix Scientific), cis-2,6-dimethylmorphoiline (Acros), 5-(trifluoromethyl)-2-pyridinecarbonitrile (Advanced Chemical Intermediates) and 5-fluoro-2-pyridinecarbonitrile (Advanced Chemical Intermediates). • ix. […] Melting points were determined using an Electrothermal melting point apparatus, and are uncorrected. […] The abbreviations s for singlet, d for doublet, t for triplet, q for quartet, br for broad and m for muitiplet were used in the assignments of multiplicity. A value approximating the centre of a multiplet is quoted. […] The addition of a few drops of acetic acid to methanol-d4 solutions was used to enhance solubility for the acquisition of ^13C nmr spectra. Mass spectra were recorded on a Micromass Quattro II mass spectrometer and accurate mass analyses were carried out by the School of Chemistry at the University of Melbourne on a Finnigan LTQ-FT model high resolution mass spectrometer. Thin layer chromatography (TLC) was carried out using Merck silica gel 60 F254 aluminium sheets or Merck neutral aluminium oxide 150 F254 sheets. Flash column chromatography was carried out using Ajax silica gel 230-400 mesh. • xi.

[2] = system: transformed human keratinocyte cell line (FEP 1811); assay: Clonogenic survival cell culture assay for cytotoxicity; format: cell-based; details: Homo sapiens, Keratinocyte, light or radiation study; un-irradiated keratinocytes, one hour drug exposure, colonies counted after eight days; read-out: C50 (concentration of radioprotector that results in 50% clonogenic survival)
Protocol: as §1, with “xi. […] The details are described in detail in Martin et al (4) (the disclosure of which is included herein in its entirety by way of reference), but briefly, mid-log phase monolayer cultures are incubated with various concentrations of the test drugs for one hour, after which the monolayers are washed and dispersed into single cell suspensions using pronase, and finally appropriate numbers of cells are dispensed into Petri dishes. Colonies are counted after eight days incubation. […] The irradiation (with a dose rate of 0.6 Gy per minute) is started 30 minutes after addition of the test drug. After completion of irradiation, incubation of cultures is continued until the total time of exposure to the drug reaches 60 minutes. Cultures are then washed and plated for clonogenic survival as described for the cytotoxicity experiments.” for “xi.”

melting point | Structure (SMILES) | DMF10 (dose modification factor at a concentration of 10 microM of radioprotector) [1] | DMFm (dose modification factor at maximum protection) [1] | PF (protection factor = Sm/So) [1] | IC50 [2]
203 to 208 °C | CN1CCN(c2ccc3nc(-c4ccc5nc(-c6cc(C(F)(F)F)ccn6)[nH]c5c4)[nH]c3c2)CC1 [Example 48, 2-(5′-(5″-(4′″-methylpiperazin-1′″-yl)benzimidazol-2″-yl)benzimidazol-2′-yl)-4-(trifluoromethyl)pyridine] | 2.58 | 2.75 | 63.8 | 23.3 µM
189 to 191 °C | CN1CCN(c2ccc3nc(-c4ccc5nc(-c6ncccc6C(F)(F)F)[nH]c5c4)[nH]c3c2)CC1 [Example 4, 2-(5′-(5″-(4′″-Methylpiperazin-1′″-yl)benzimidazol-2″-yl)benzimidazol-2′-yl)-3-trifluoromethylpyridine] | 1.41 | 1.99 | 30.5 | 190 µM
201 to 214 °C | CN1CCN(c2ccc3nc(-c4ccc5nc(-c6ncccc6F)[nH]c5c4)[nH]c3c2)CC1 [Example 3, 3-Fluoro-2-(5′-(5″-(4′″-methylpiperazin-1′″-yl)benzimidazol-2″-yl)benzimidazol-2′-yl)pyridine] | 1.40 | 1.80 | 15.3 | 93.1 µM

Second part, the molecule before the results:

Structure (SMILES) | melting point | DMF10 (dose modification factor at a concentration of 10 microM of radioprotector) [1] | DMFm (dose modification factor at maximum protection) [1] | PF (protection factor = Sm/So) [1] | IC50 [2]
COc1cc(-c2nc3cc(N4CCN(C)CC4)ccc3[nH]2)cc2nc(-c3ccccn3)[nH]c12 [Example 30, 2-(4′-Methoxy-6′-(5″-(4′″-methylpiperazin-1′″-yl)benzimidazol-2″-yl)benzimidazol-2′-yl)pyridine] | 200 °C (dec.) | 1.78 | 1.97 | 13.3 | 158 µM
OC1CCN(c2ccc3nc(-c4ccc5nc(-c6ccccn6)[nH]c5c4)[nH]c3c2)CC1 [Example 22, 2-(5′-(5″-(4′″-Hydroxypiperidin-1′″-yl)benzimidazol-2″-yl)benzimidazol-2′-yl)pyridine] | 226 to 229 °C | 1.47 | 2.20 | 21.3 | 266 µM
CN(C)C1CCN(c2ccc3nc(-c4ccc5nc(-c6ccccn6)[nH]c5c4)[nH]c3c2)CC1 [Example 29, 2-(5′-(5″-(4′″-(Dimethylamino)piperidin-1′″-yl)benzimidazol-2″-yl)benzimidazol-2′-yl)pyridine] | 198 to 205 °C | 1.54 | 1.76 | 18.2 | 46.9 µM
CN1CCN(c2ccc3nc(-c4ccc5nc(-c6ccc[nH]c6=O)[nH]c5c4)[nH]c3c2)CC1 [Example 18, 3-(5′-(5″-(4′″-Methylpiperazin-1′″-yl)benzimidazol-2″-yl)benzimidazol-2′-yl)pyridin-2(1H)-one] | 244 to 248 °C | 1.00 | 1.01 | 1.1 | 66.8 µM
CN1CCN(c2ccc3nc(-c4ccc5nc(-c6ccco6)[nH]c5c4)[nH]c3c2)CC1 [Example 1, 2-(5′-(5″-(4′″-Methylpiperazin-1′″-yl)benzimidazol-2″-yl)benzimidazol-2′-yl)furan] | 202 to 224 °C (dec.) | 1.14 | 1.37 | 7.7 | 57.3 µM
